Laboratory results: patent US5428036A (H. Lundbeck A/S, priority 1990, dated 1995)

Key:
[1] = Sertindole concentration in dog serum after i.m. depot dosing in Viscoleo (HPLC); format: in vivo, Beagle dogs; conditions: i.m. depot formulation in dogs; FIG. 1
Protocol: The depot effects of the compounds of the invention were determined as described in the following example:
Seven Beagle dogs were used. One male and one female dog were used for each preparation exept for 1a where only one female dog was used. The compounds were dissolved in Viscoleo®. One ml Viscoleo® equivalent 1 kg dog. The dogs were dosed i.m. approx. 5 ml in each thigh.
Blood samples were drawn at 1,2, 4, 8, and 24 hours after dosing, and 2, 4, 7, 10, and 14 days after dosing.
The serum samples were analyzed by HPLC using a system consisting of a Spherisorb S5W column (25 cm×4.6 mm) and a Hewlett Packard HP 1090 chromatograph with a HP 1050 UV-absorbance detector with a measuring wavelength of 254 nm. Elution was performed with n-heptane/2-propanol/conc. ammonia/water in the ratio 100/18.4/0.5/0.2, v/v as eluent at ambient temperature with a pressure of approximately 70 bar and a flow rate of 1 ml/min.

5-HT2 = molecular target: T1, 5-HT2 (Rattus norvegicus, UniProt P14842); assay: Quipazine inhibition (antagonism of quipazine induced head twitches in rats); format: in vivo; conditions: for ED50: po, p.o. 24 hrs before quipazine (6.8 mg/kg, s.c.), head twitches, rat
T1 construct: Four rats, male Wistar (Mol:Wist) SPF rats, are used at each dose level; from tissue; host or cells: living male Wistar (Mol:Wist) SPF rats; receptor endogenous to the animal
T1 sequence (P14842 whole entry): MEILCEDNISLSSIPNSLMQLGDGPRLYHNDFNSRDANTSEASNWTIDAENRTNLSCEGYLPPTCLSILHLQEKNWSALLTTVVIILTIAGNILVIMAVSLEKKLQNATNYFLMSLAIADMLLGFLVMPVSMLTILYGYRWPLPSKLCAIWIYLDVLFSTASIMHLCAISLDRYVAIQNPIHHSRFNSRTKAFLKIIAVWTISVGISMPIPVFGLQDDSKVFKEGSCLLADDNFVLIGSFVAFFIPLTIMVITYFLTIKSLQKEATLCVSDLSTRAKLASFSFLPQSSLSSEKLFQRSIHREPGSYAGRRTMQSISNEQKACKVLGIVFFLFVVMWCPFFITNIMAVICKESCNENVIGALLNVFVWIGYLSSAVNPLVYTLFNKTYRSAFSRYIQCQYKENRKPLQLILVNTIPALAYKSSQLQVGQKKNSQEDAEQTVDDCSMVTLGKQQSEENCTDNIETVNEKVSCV
Protocol: (§1) The prodrugs of the invention were tested in vitro for 5-HT2 receptor affinity (^3 H-ketanserin binding) and for 5-HT2 antagonistic effect in vivo (antagonism of quipazine induced head twiches).
Quipazine is a 5-HT2 agonist, which induces head twitches in rats. The test is a test for 5-HT2 -antagonistic effect measuring the ability to inhibit head twitches. The method and test results for some reference substances are published by Arnt et al. (Drug Dev. Res., 16, 59-70, 1989).
Test substance is given p.o. 24 hrs before quipazine administration (6.8 mg/kg, s.c., dimaleate). Four rats, male Wistar (Mol:Wist) SPF rats, are used at each dose level. A control group is included each test day. After quipazine administration the rats are individually placed in the observation cages and head twitches are counted in an observation period of 10 min. 30-40 min. after injection of quipazine.
Total number of head twitches in each group are calculated and the result for each dose is expressed as percent of the response in the control group. ED50 values are calculated by log-probit analysis. The test must be repeated if the average number of head twitches is lower than 9 in the control group.

[2] = molecular target: T2, serotonin S2 (5-HT2) receptors (Rattus norvegicus, UniProt P14842); assay: Inhibition of 3H-ketanserin binding to serotonin S2 (5-HT2) receptors in rat cortex in vitro; conditions: for IC50: 0.5 nM 3H-ketanserin, rat cortex membranes, 37° C., 30 min
T2 construct: from tissue; host or cells: cerebral cortex membranes of male Wistar (Mol:Wist) rats
T2 sequence (P14842 whole entry): as above
Protocol: as §1
Inhibition of ^3 H-ketanserin Binding to Serotonin S2 (5-HT2)Receptors in Rat Cortex in vitro
By this method the inhibition by drugs of the binding of ^3 H-Ketanserin (0,5 nM) to serotonin S2 (5-HT2) receptors in membranes from rat corex is determined in vitro. Method in Hyttel, Pharmacol. & Toxicol, 61, 126-129 1987.
Male Wistar (Mol:Wist) rats are sacrificed and cortical tissue is dissected and weighed. The tissue is homogenized (Ultra Turrax, 10 sec.) in 10 ml of ice-cold 50 mM tris buffer pH 7.7 (at 25° C.). The centrifuge glass ware used in this step has been rinsed by sonication for 10 min. in ethanol. The homogenate is centrifuged twice at 20,000 g for 10 min. at 4° C. with rehomogenization of the pellet in 10 ml ice-cold buffer. The final pellet is homogenized in 500 vol (w/v) ice-cold buffer. Incubation tubes kept on ice in triplicate receive 100 μl of drug solution in water (or water for total binding) and […] of tissue suspension (final tissue content corresponds to 4 mg original tissue). The binding experiment is initiated by addition of 100 μl of ^3 H-Ketanserin (final concentration 0.5 nM) and by placing the tubes in a 37° C. water bath. After incubation for 30 min. the samples are filtered under vacuum (0-50 mBar) through Whatman GF/F filters (25 mm). The tubes are rinsed with 5 ml ice-cold buffer which are then poured on the filters. Thereafter, the filters are washed with 2×5 ml of buffer. The filters are placed in counting vials and 4 ml of appropriate scintillation fluid (e.g. Picofluor™ 15) are added. After shaking for 1 h and storage 2 hrs in the dark the content of radioactivity is determined by liquid scintillation counting. Specific binding is obtained by subtracting the nonspecific binding in the presence of 1 μM mianserin. For determination of the inhibition of binding five concentrations of drugs covering 3 decades are used.
The IC50 value is determined as the concentration at which the binding is 50% of the total binding in control samples minus the nonspecific binding in the presence of 1 μM mianserin.
^3 H-Ketanserin=[ethylene-^3 H]-ketanserin hydrochloride from New England Nuclear, specific activity 60-80 Ci/mmol.

| SMILES | decomposition to sertindole after injection of a depot formulation [1] | ED50 (5-HT2) [µmol/kg] | IC50 [2] [nM] | Serotonin S2 (5-HT2) antagonism in vivo (5-HT2; in vivo, statement in words) | Serotonin S2 (5-HT2) antagonism in vitro ([2]; in vitro, statement in words) |
| --- | --- | --- | --- | --- | --- |
| CC(=O)N1CCN(CCN2CCC(c3cn(-c4ccc(F)cc4)c4ccc(Cl)cc34)CC2)C1=O [Compound 1a] | decompose to sertindole after injection of a depot formulation | 0.029 | 1.2 | – | – |
| CCCCCCCCCC(=O)N1CCN(CCN2CCC(c3cn(-c4ccc(F)cc4)c4ccc(Cl)cc34)CC2)C1=O [Compound 1b, 5-chloro-3-[1-[2-(3-decanoyl-2-imidazolidinon-1-yl)ethyl]-4-piperidyl]-1-(4-fluorophenyl)-1H-indole] | – | 0.09 | 57 | – | – |
| CCCCCCCCCCCCCCCC(=O)N1CCN(CCN2CCC(c3cn(-c4ccc(F)cc4)c4ccc(Cl)cc34)CC2)C1=O [Compound 1e] | – | 0.77 | 47 | – | – |
| O=C(c1ccccc1)N1CCN(CCN2CCC(c3cn(-c4ccc(F)cc4)c4ccc(Cl)cc34)CC2)C1=O [Compound 1f, 3-[1-[2-(3-benzoyl-2-imidazolidinon-1-yl)ethyl]-4-piperidyl]-5-chloro-1-(4-fluorophenyl)-1H-indole] | – | 0.05 | 9.3 | – | – |
| CCCCCCCC/C=C\CCCCCCCC(=O)N1CCN(CCN2CCC(c3cn(-c4ccc(F)cc4)c4ccc(Cl)cc34)CC2)C1=O [Compound 2a] | – | 0.55 | 260 | – | – |
| CN(C)C(=O)N1CCN(CCN2CCC(c3cn(-c4ccc(F)cc4)c4ccc(Cl)cc34)CC2)C1=O [Compound 4a, 5-Chloro-3-[1-[2-(3-dimethylcarbamyl-2-imidazolidinon-1-yl)ethyl]-4-piperidyl]-1-(4-fluorophenyl)-^1 H-indole] | – | 0.24 | 0.9 | – | – |
| CCCCCCCCCCOC(=O)N1CCN(CCN2CCC(c3cn(-c4ccc(F)cc4)c4ccc(Cl)cc34)CC2)C1=O [Compound 4d, 5-chloro-3-[1-[2-[3-(1-decyl)oxycarbonyl-2-imidazolidinon-1-yl]ethyl]-4-piperidyl]-1-(4-fluorophenyl)-1H-indole] | – | 1.1 | 13 | – | – |
| O=C1N(CO)CCN1CCN1CCC(c2cn(-c3ccc(F)cc3)c3ccc(Cl)cc23)CC1 [Compound 5a, 5-Chloro-1-(4-fluorophenyl)-3-[1-[2-(3-hydroxymethyl-2-imidazolidinon-1-yl)ethyl]-4-piperidyl]-1H-indole] | – | 0.037 | 0.47 | – | – |
| O=C1N(CCN2CCC(c3cn(-c4ccc(F)cc4)c4ccc(Cl)cc34)CC2)CCN1CN1CCOCC1 [Compound 6a, 5-Chloro-1-(4-fluorophenyl)-3-[1-[2-[3-(1-morpholinomethyl)-2-imidazolidinon-1-yl]ethyl]-4-piperidyl]-1H-indole] | – | 0.079 | 0.97 | – | – |
| CN(C)CN1CCN(CCN2CCC(c3cn(-c4ccc(F)cc4)c4ccc(Cl)cc34)CC2)C1=O [Compound 6b, 5-chloro-3-[1-[2-(3-dimethylaminomethyl-2-imidazolidinon-1-yl)ethyl]-4-piperidyl]-1-(4-fluorophenyl)-1H-indole] | – | – | 0.6 | – | – |
| CCOCN1CCN(CCN2CCC(c3cn(-c4ccc(F)cc4)c4ccc(Cl)cc34)CC2)C1=O [Compound 7a, 5-Chloro-3-[1-[2-(3-ethoxymethyl-2-imidazolidinon-1-yl)ethyl]-4-piperidyl]-1-(4-fluorophenyl)-1H-indole] | – | 0.081 | 1.2 | – | – |
| CCCCCCCCCCOCN1CCN(CCN2CCC(c3cn(-c4ccc(F)cc4)c4ccc(Cl)cc34)CC2)C1=O [Compound 7d] | – | 0.15 | 49 | – | – |
| CC(C)c1ccc(C(=O)N2CCN(CCN3CCC(c4cn(-c5ccc(F)cc5)c5ccc(Cl)cc45)CC3)C2=O)cc1 [Compound 8a, 5-Chloro-1-(4-fluorophenyl)-3-[1-[2-[3-(4-isopropylbenzoyl)-2-imidazolidinon-1-yl]ethyl]-4-piperidyl]-1H-indole] | – | 0.12 | 20 | – | – |
| CC(=O)Oc1ccccc1C(=O)N1CCN(CCN2CCC(c3cn(-c4ccc(F)cc4)c4ccc(Cl)cc34)CC2)C1=O [Compound 8c] | – | 0.057 | 24 | – | – |
| CCCC(=O)N1CCN(CCN2CCC(c3cn(-c4ccc(F)cc4)c4ccc(Cl)cc34)CC2)C1=O [Compound 8d, 3-[1-[2-(3-butanoyl-2-imidazolidinon-1-yl)ethyl]-4-piperidyl]-5-chloro-1(4-fluorophenyl)-1H-indole] | – | 0.014 | 5.6 | – | – |
| CCCCCC(=O)N1CCN(CCN2CCC(c3cn(-c4ccc(F)cc4)c4ccc(Cl)cc34)CC2)C1=O [Compound 8e, 5-chloro-1-(4-fluorophenyl)-3-[1-[2-(3-hexanoyl-2-imidazolidinon-1-yl)ethyl]-4-piperidyl]-1H-indole] | – | 0.039 | 38 | – | – |
| CCCCCCCC(=O)N1CCN(CCN2CCC(c3cn(-c4ccc(F)cc4)c4ccc(Cl)cc34)CC2)C1=O [Compound 8f, 5-chloro-1-(4-fluorophenyl)-3-[1-[2-(3-octanoyl-2-imidazolidinon-1-yl)ethyl]-4-piperidyl]-1H-indole] | – | 0.092 | 140 | – | – |
| O=C1NCCN1CCN1CCC(c2cn(-c3ccc(F)cc3)c3ccc(Cl)cc23)CC1 [sertindole, 5-chloro-1-(4-fluorophenyl)-3-[1-[2-(2-imidazolidinon-1-yl)ethyl]-4-piperidyl]-1H-indole, reference compound] | – | – | – | very potent | very potent |
